In patent US11198686B2, “Crystal form and salt form of pyridone compound and preparation method therefor” (GUANGZHOU JOYO PHARMATECH CO., LTD., priority 2017, dated 2021):
Values after ≈ are worked out from the molar mass of the structure shown. Blank lines part the entries; values can stand above or below the compound they belong to.

Columns and labels:
[1] = Solid-state stability test of crystal form A under high temperature and high humidity (HPLC, XRPD); assay type: physicochemical; settings: for Appearance / Crystal form / Purity / Total impurities: open
Description: 16 samples of 10 mg of crystal form A were weighed in parallel and spread evenly on the bottom of glass bottles, and 8 samples of 20 mg of crystal form A were spread out into a thin layer. All sample bottles were sealed with aluminum foil, and some small holes were punched on the aluminum foil to allow the samples to fully contact with the ambient air. The samples were placed at 40° C./75% RH and 60° C./75% RH for 1 month, 2 months and 3 months, respectively.
Analytical method: Agilent 1260 HPLC with DAD detector or Waters 2695 HPLC with PDA detector was used: column: Waters Atlantis dC18 (4.6 mm×150 mm, 3.0 μm); column temperature: 40° C.; flow rate: 1.0 mL/min; detection wavelength: 230 nm; injection volume: 10 μL; sample concentration: 0.5 mg/mL; diluent: acetonitrile:water=1:1 (v/v); the following mobile phase gradients were used for analysis: […]

[2] = Solid-state physical stability test of crystal form A under different temperature, humidity and light irradiation; assay type: physicochemical; settings: for Appearance / Crystal form: 10 d
Description: 4 samples of 100 mg of crystal form A solid were weighed in parallel and spread evenly on the bottom of the glass bottles into a thin layer. The bottles were sealed with aluminum foil, and some small holes were punched on the aluminum foil to allow the sample to be fully in contact with the ambient air. The 4 samples prepared were placed under the conditions of 25° C./92.5% RH, 60° C., 40° C./75% RH and light irradiation, and the physical stability of the samples on the 10th day was examined. In the meantime, about 100 mg of crystal form A solid was weighed separately, placed on the bottom of a glass sample bottle, sealed with a screw cap and stored at −20° C., this sample was used as the control sample. On the 10th day, all samples were taken out, and returned to room temperature. The appearance change of the samples was observed, and XRPD was used to detect the crystal form of the samples. By comparing the accelerated samples with the control sample, the solid-state physical stability of crystal form A of Compound 1 was determined.

[3] = Study on polymorphism of Compound 1 (suspension in solvents, XRPD); assay type: physicochemical; settings: for Crystal form: 40° C., 2 days
Description: Approximate 50 mg of the sample were weighed and added to separate 4.0 mL glass vials, respectively, followed by addition of an appropriate amount of the solvents or solvent mixture (see the table below) to give a suspension. After shaking at 40° C. for 2 days, all the samples were taken out and centrifuged in a centrifuge at 8000 r/min for 5 minutes. The supernatant was discarded, and the remaining solid was dried in a 35° C. vacuum drying box for two days. The dried samples were taken out for XRPD detection.

[4] = Approximate solubility of crystal form A in different solvents (manual stepwise dilution); assay type: physicochemical; settings: thermodynamic from solid, ambient temperature
Description: In this study, the method of manual stepwise dilution along with the observation of the dissolution under ambient temperature condition was used for determination. About 2 mg of crystal form A of Compound 1 was added to separate HPLC vials, followed by multiple addition of organic solvents or the mixed solvents (Table 5) in a small amount, and the dissolution of the compound was monitored.

[5] = tested on: TNF-α; assay: Ex-vivo effect on endotoxin LPS-induced TNF-α in rat blood (ELISA); assay type: cell-based, Sprague Dawley rats
Description: Experimental objective: testing the effect of Compound 1 on bacterial lipopolysaccharide (LPS)-induced TNF-α in rat blood to evaluate the anti-inflammatory effect ex-vivo
Sprague Dawley rats (male, 280-310 g, Shanghai Slac Laboratory Animal CO. LTD)
Rat TNF-alpha Quantikine ELISA Kit (R&D, #SRTA00)
A solution of the compound was prepared (5 mM or 1 mM), and 40 μL of the prepared solution was added into a 48-well cell culture plate, respectively (the final concentration of the compounds was 0.5 or 0.1 mM). The rats were anaesthetized with isoflurane and the blood was collected from the abdominal aorta (Heparin anticoagulant). The blood was added into the 48-well cell culture plate (320 μL per well) containing the compounds to be tested. Afterwards, the 48-well cell culture plate was incubated at 37° C. for 30 minutes. Then the plate was taken out, and 40 μL of LPS (the final concentration was 100 μg/mL) was added and mixed evenly. The resulting mixture was incubated at 37° C. After 5 hours, the 48-well plate was taken out and the blood was transferred into 1.5 mL centrifuge tubes and centrifuged in a centrifuge (4,500 rpm, 4° C., 5 min). The supernatant was isolated to obtain the plasma, which was aliquoted (20 μL per well) into a 96-well sample plate, and then sharp-frozen and preserved in a refrigerator (−80° C.). On the second day, the TNF-α level in the plasma samples was determined by using R&D ELISA kits according to the kit specification. The data was analyzed by EXCEL and Prism.

[6] = tested on: idiopathic pulmonary fibrosis; assay: SD rat left unilateral pulmonary fibrosis model; assay type: in vivo

Appearance ([1]; 40° C./75% RH, 1 M): White powder
Crystal form ([1]; 40° C./75% RH, 1 M): Form A
Purity ([1]; 40° C./75% RH, 1 M): 99.949%
Total impurities ([1]; 40° C./75% RH, 1 M): 0.051%
Appearance ([1]; 40° C./75% RH, 2 M): White powder
Crystal form ([1]; 40° C./75% RH, 2 M): Form A
Purity ([1]; 40° C./75% RH, 2 M): 99.948%
Total impurities ([1]; 40° C./75% RH, 2 M): 0.052%
Appearance ([1]; 40° C./75% RH, 3 M): White powder
Crystal form ([1]; 40° C./75% RH, 3 M): Form A
Purity ([1]; 40° C./75% RH, 3 M): 99.947%
Total impurities ([1]; 40° C./75% RH, 3 M): 0.053%
Appearance ([1]; 60° C./75% RH, 1 M): White powder
Crystal form ([1]; 60° C./75% RH, 1 M): Form A
Purity ([1]; 60° C./75% RH, 1 M): 99.949%
Total impurities ([1]; 60° C./75% RH, 1 M): 0.051%
Appearance ([1]; 60° C./75% RH, 2 M): White powder
Crystal form ([1]; 60° C./75% RH, 2 M): Form A
Purity ([1]; 60° C./75% RH, 2 M): 99.948%
Total impurities ([1]; 60° C./75% RH, 2 M): 0.052%
Appearance ([1]; 60° C./75% RH, 3 M): White powder
Crystal form ([1]; 60° C./75% RH, 3 M): Form A
Purity ([1]; 60° C./75% RH, 3 M): 99.950%
Total impurities ([1]; 60° C./75% RH, 3 M): 0.050%
Solid-state stability (conclusion) ([1]; within three months, 40° C./75% RH and 60° C./75% RH): stable
Appearance ([2]; 25° C./92.5% RH (open)): White
Crystal form ([2]; 25° C./92.5% RH (open)): Form A
Appearance ([2]; 40° C./75% RH (open)): White
Crystal form ([2]; 40° C./75% RH (open)): Form A
Appearance ([2]; 60° C. (open)): White
Crystal form ([2]; 60° C. (open)): Form A
Appearance ([2]; Light irradiation): White
Crystal form ([2]; Light irradiation): Form A
Solid-state physical stability (conclusion) ([2]; within 10 days under each condition): stable
Stability of crystal form in solvents (conclusion) ([3]; under the conditions of the solvents of Table 4): stable
solubility ([4]; aqueous with cosolvent or surfactant or cyclodextrin, Acetone-water (1:2)): 52 to 103 mg/mL (≈ 210 to 416 mM)
solubility ([4]; aqueous with cosolvent or surfactant or cyclodextrin, Acetonitrile-water (1:1)): > 100 mg/mL
solubility ([4]; aqueous with cosolvent or surfactant or cyclodextrin, Ethanol-water (1:1)): > 100 mg/mL
solubility ([4]; aqueous with cosolvent or surfactant or cyclodextrin, Ethanol-water (3:1)): > 104 mg/mL
solubility ([4]; aqueous with cosolvent or surfactant or cyclodextrin, Isopropanol-water (1:1)): > 102 mg/mL
solubility ([4]; aqueous with cosolvent or surfactant or cyclodextrin, Methanol-water (1:1)): > 102 mg/mL
solubility ([4]; aqueous with cosolvent or surfactant or cyclodextrin, Methanol-water (3:1)): > 104 mg/mL
solubility ([4]; organic solvent or mixture, 1,4-dioxane): > 102 mg/mL
solubility ([4]; organic solvent or mixture, 2-Methyltetrahydrofuran): 34 to 51 mg/mL (≈ 137 to 206 mM)
solubility ([4]; organic solvent or mixture, Acetone): 52 to 103 mg/mL (≈ 210 to 416 mM)
solubility ([4]; organic solvent or mixture, Acetonitrile): > 100 mg/mL
solubility ([4]; organic solvent or mixture, Cyclohexane): < 2 mg/mL
solubility ([4]; organic solvent or mixture, Ethanol): 51 to 102 mg/mL (≈ 206 to 412 mM)
solubility ([4]; organic solvent or mixture, Ethyl acetate): 34 to 51 mg/mL (≈ 137 to 206 mM)
solubility ([4]; organic solvent or mixture, Heptane): < 2 mg/mL
solubility ([4]; organic solvent or mixture, Isopropanol): 34 to 52 mg/mL (≈ 137 to 210 mM)
solubility ([4]; organic solvent or mixture, Isopropyl acetate): 20 to 34 mg/mL (≈ 80.9 to 137 mM)
solubility ([4]; organic solvent or mixture, Methanol): > 104 mg/mL
solubility ([4]; organic solvent or mixture, Methyl ethyl ketone): 52 to 104 mg/mL (≈ 210 to 421 mM)
solubility ([4]; organic solvent or mixture, Methyl isobutyl ketone): 34 to 51 mg/mL (≈ 137 to 206 mM)
solubility ([4]; organic solvent or mixture, Methyl tert-butyl ether): < 2 mg/mL
solubility ([4]; organic solvent or mixture, Tetrahydrofuran): 51 to 102 mg/mL (≈ 206 to 412 mM)
solubility ([4]; organic solvent or mixture, Toluene): 35 to 52 mg/mL (≈ 142 to 210 mM)
solubility ([4]; organic solvent or mixture, n-butanol): 50 to 100 mg/mL (≈ 202 to 404 mM)
solubility ([4]; Water): 10 to 21 mg/mL (≈ 40.4 to 84.9 mM)
Compound: CC1(c2ccc(=O)n(-c3ccsc3)c2)COC1 [crystal form A]
Inhibitory effect on TNF-α level induced by LPS (in words) ([5]; final concentration 0.1 mM, inhibition significantly higher than Pirfenidone): significant inhibitory effect
inhibition at 100 µM ([5]; rat blood, LPS 100 μg/mL, compound 0.1 mM): 80.8%
Inhibitory effect on idiopathic pulmonary fibrosis (in words) [6]: significant inhibitory effect

Crystal form ([3]; suspension in Acetone): Form A
Crystal form ([3]; suspension in Acetone:Water (1:2)): Form A
Crystal form ([3]; suspension in Acetonitrile): Form A
Crystal form ([3]; suspension in Ethanol): Form A
Crystal form ([3]; suspension in Ethyl acetate): Form A
Crystal form ([3]; suspension in Water): Form A
Compound: CC1(c2ccc(=O)n(-c3ccsc3)c2)COC1 [Compound 1]

Compound: Cc1ccc(=O)n(-c2ccccc2)c1 [Pirfenidone (PFD), Pirfenidone, reference compound]
inhibition at 500 µM ([5]; rat blood, LPS 100 μg/mL, compound 0.5 mM): 53.5%
